How the values were obtained:
Mice (CD-1) = assay: Estimated i.v. LD50, mice (systemic toxicity); format: in vivo; conditions: 300 mg I/ml, 37° C., injection rate 1 ml/min
Method: (§1) Compounds VIII and XVI were tested from stability, solubility, osmolality, viscosity and systemic toxicity.
(§2) *All at 300 mg I/ml concentration and 37° C. Injection rates 1
(§3) ml/min in mice and 5 ml/min in rats.
(§4) °Ref. Salvesen, S. in Acta Radiol. Suppl. 362, p. 73, 1980

Rats (Lewis) = assay: Estimated i.v. LD50, rats (systemic toxicity); format: in vivo; conditions: 300 mg I/ml, 37° C., injection rate 5 ml/min
Method: as §1, §2, §3, §4

[1] = must be dispensed lyophilized and reconstituted prior to use; cited from earlier work
Osmolality = format: physicochemical; conditions: for osmolality (in words): compared with existing compounds
Method: as §1, §2

Viscosity = format: physicochemical; conditions: for viscosity (in words): compared with existing compounds
Method: as §1, §2

Stability = format: physicochemical; conditions: compared with existing compounds
Method: as §1

Solubility = format: physicochemical; conditions: compared with existing compounds
Method: as §1

[2] = Systemic toxicity (conventional tests, in words); format: in vivo; conditions: compared with existing compounds
Method: as §1

| Structure (SMILES) | Estimated i.v. LD50 (Mice (CD-1)) | Estimated i.v. LD50 (Rats (Lewis)) | hydrolytic stability (in words) [1] | Osmolality (Osmolality; 300 mg I/ml, 37° C.) | osmolality (in words) (Osmolality) | Viscosity (Viscosity; 300 mg I/ml, 37° C.) | viscosity (in words) (Viscosity) | stability (in words) (Stability) | solubility (in words) (Solubility) | systemic toxicity (in words) [2] |
| --- | --- | --- | --- | --- | --- | --- | --- | --- | --- | --- |
| C[C@H](O)C(=O)Nc1c(I)c(C(=O)NC(CO)CO)c(I)c(C(=O)NC(CO)CO)c1I [Iopamidol] | 17-18 gI/kg | 12.2-13 gI/kg | – | – | – | – | – | – | – | – |
| CC(=O)N(CC(O)CO)c1c(I)c(C(=O)NCC(O)CO)c(I)c(C(=O)NCC(O)CO)c1I (centres unmarked) [Iohexol] | 16-17 gI/kg | 13.5-15 gI/kg | – | – | – | – | – | – | – | – |
| CC(=O)Nc1c(I)c(C(=O)N[C@H]2C(O)O[C@H](CO)[C@@H](O)[C@@H]2O)c(I)c(N(C)C(C)=O)c1I (some centres unmarked) [Metrizamide] | – | – | hydrolytic instability | – | – | – | – | – | – | – |
| COCC(=O)Nc1c(I)c(C(=O)NCC(O)CO)c(I)c(C(=O)N(C)CC(O)CO)c1I (centres unmarked) [Iopromide] | 11.5-13.0 gI/kg | 10-11.5 gI/kg | – | – | – | – | – | – | – | – |
| CC(=O)N(CC(O)CO)c1c(I)c(C(=O)NCCO)c(I)c(C(=O)NCC(O)CO)c1I (centres unmarked) [VIII, 5-(N-2,3-dihydroxypropylacetamido)-2,4,6-triiodo-N-(2,3-dihydroxypropyl)-N'-(2-hydroxyethyl)-isophthalamide] | 16-17 gI/kg | 14-16.5 gI/kg | – | 560 mOsm/kg | substantially reduced osmolality | 5.3 cps | comparable properties in the other categories | comparable properties in the other categories | comparable properties in the other categories | comparable properties in the other categories |
| CNC(=O)c1c(I)c(C(=O)N[C@@H](CO)[C@H](O)CO)c(I)c(N(CC(O)CO)C(C)=O)c1I (relative stereo) [XVI, 5-(N-2,3-Dihydroxypropylacetamido)-2,4,6-triiodo-N-methyl-N'-(1,3,4-trihydroxy-erythro-but-2-yl) isophthalamide] | 12-13 gI/kg | 13.5-14 gI/kg | – | – | substantially reduced osmolality | – | comparable properties in the other categories | comparable properties in the other categories | comparable properties in the other categories | comparable properties in the other categories |

— patent publication US5035877A, “Non-ionic contrast media from ionic contrast media” (Cook Imaging Corporation, priority 1990, dated 1991)
